Assay results: ChEMBL document CHEMBL2424595, “Substituted pyrrolo[2,3-d]pyrimidines as Cryptosporidium hominis thymidylate synthase inhibitors” (Bioorg Med Chem Lett, 2013)
Activity calls are given as the source filed them. No cut-off for these calls is given here.

Tests used:
[1] = Inhibition of Cryptosporidium hominis thymidylate synthase
[2] = target: Thymidylate synthase (Homo sapiens) (UniProt P04818); assay: Inhibition of human thymidylate synthase
[3] = system: Cryptosporidium hominis; assay: Inhibition of Cryptosporidium hominis DHFR

Chain of Thymidylate synthase (Homo sapiens) (P04818 2-313 limits assumed): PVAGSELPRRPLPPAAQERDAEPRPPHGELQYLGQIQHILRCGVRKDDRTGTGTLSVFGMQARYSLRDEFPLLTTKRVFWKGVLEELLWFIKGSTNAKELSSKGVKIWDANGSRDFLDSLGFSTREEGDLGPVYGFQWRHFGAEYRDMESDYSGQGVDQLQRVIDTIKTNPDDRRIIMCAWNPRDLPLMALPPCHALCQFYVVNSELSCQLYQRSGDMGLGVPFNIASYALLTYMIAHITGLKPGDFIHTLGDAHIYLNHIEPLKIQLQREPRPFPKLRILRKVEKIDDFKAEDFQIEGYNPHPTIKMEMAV

Structure (SMILES)	IC50 [1] [nM]	inhibition [2]	inhibition [3]	Ki [1] [nM]
Nc1nc2[nH]cc(Cc3ccc(C(=O)N[C@@H](CCC(=O)O)C(=O)O)cc3)c2c(=O)[nH]1	380	–	–	–
Nc1nc2[nH]cc(Cc3ccc(C(=O)N[C@@H](CCC(=O)O)C(=O)O)s3)c2c(=O)[nH]1	30	Active	Active	–
Nc1nc2[nH]cc(CCCc3ccc(C(=O)N[C@@H](CCC(=O)O)C(=O)O)cc3)c2c(=O)[nH]1	2440	–	–	–
Nc1nc2[nH]cc(CCCCCc3ccc(C(=O)N[C@@H](CCC(=O)O)C(=O)O)cc3)c2c(=O)[nH]1	31100	–	–	–
Nc1nc2[nH]cc(CCc3ccc(C(=O)N[C@@H](CCC(=O)O)C(=O)O)cc3)c2c(=O)[nH]1 [PEMETREXED]	2090	–	–	–
Cc1[nH]c2nc(N)[nH]c(=O)c2c1Sc1ccc(C(=O)N[C@@H](CCC(=O)O)C(=O)O)c(Cl)c1	10	Active	Active	8.83
